Series [1] is described as follows: Storage stability of hydroxystilbenes (residual amount by HPLC). Type of series: physicochemical. The note with it: for remaining at 1032 h: pH 8, left 43 days at room temperature, sample with PEG-60 hydrogenated castor oil in citric acid buffer solution, HPLC. The procedure: Various hydroxystilbenes shown in the following Table 1 were dissolved in ethanol, thereby preparing a 1% solution. The solution was stirred together with PEG-60 hydrogenated castor oil which was in an amount 10 times the amount of the solution with respect to 1 part of the ethanol solution. Thereafter, the resultant was diluted by 100-fold with a citric acid buffer solution, thereby preparing a sample.
pH of the sample prepared as above was regulated to be 8, and the sample was left as is for a month and a half (43 days) at room temperature. Thereafter, by means of HPLC, a residual amount of various hydroxystilbenes in each sample was determined. Analysis conditions for HPLC are as follows.
• Column: C18 5 µm, 4.6 mm x 250 mm • Flow rate: 1 ml/min • Column temperature: 40°C • Detection wavelength: 310 nm • Developing solution: acetonitrile/water = 20/80 (volume ratio, containing 0.1% by volume of acetic acid and 0.1% by volume of triethanolamine) [Table 1]

For a further series, the system named is NF-κB. Nature of the series: NF-κB intranuclear transition in UVB-irradiated dermal fibroblasts (Western blotting). Type of series: cell-based. To be noted: Homo sapiens, light or radiation study; HDF cells, UVB (20 mJ) irradiated, 6 hours; pterostilbene 5 ppm, no carotenoid; not irradiated = 100 %, irradiated without additive = 684%; read-out: Ratio of amount of NF-κB moving into nucleus. An excerpt: NFκB is considered to be involved in skin aging at an early stage. Therefore, an NFκB intranuclear transition inhibition rate of carotenoid and pterostilbene was examined.
Normal human dermal fibroblasts (HDF cells, KURABO INDUSTRIES LTD.) were subcultured three times according to a common method, in a GlutaMax medium (D-MEM, Gibco) supplemented with 10% fetal bovine serum (FBS, Gibco). The subcultured HDF cells were caused to adhere to a container at 1,000,000 cells/25 cm^2 and put in a serum starvation state for a day. Thereafter, the HDF cells were washed with phosphate buffered saline (PBS).
The cells were irradiated with UVB (20 mJ) emitted from right above the cells, and then the medium was replaced with a medium obtained by adding 0.1% FBS to D-MEM containing the carotenoid and the pterostilbene shown in Tables 6 and 7.
6 hours after the replacement of the medium, nuclei were extracted using NucBuster (Novagen), and the amount of NF-κB moved into the nuclei was determined by Western blotting (WB) (primary antibody: NF-κB p65 Rabbit Monoclonal Antibody (Cat. #1546-1), EPITOMICS).
Moreover, in Experiment 1 and Experiment 7, for comparison, the cells were not irradiated with UVB.

With `COc1cc(/C=C/c2cc(O)cc(O)c2)ccc1O` [(E)-3,4',5-trihydroxy-3'-methoxystilbene], in series [1], the fraction remaining (usually the share of the starting amount still present when the sample was taken) at 1032 h came out at 46%. On the same count and under the same terms, the figure for `Oc1cc(O)cc(/C=C/c2ccc(O)c(O)c2)c1` [Piceatannol] is 26%. Consider `COc1cc(/C=C/c2ccc(O)cc2)cc(OC)c1` [Pterostilbene, trans-1-(3,5-Diemthoxyphenyl)-2-(4-hydroxyphenyl)ethylene], for which, in series [1], the fraction remaining at 1032 h was found to be 99%. In addition, the activity at 5 ppm in the series with NF-κB worked out at 420%. In series [1], `Oc1ccc(C=Cc2cc(O)cc(O)c2)cc1` [Resveratrol] showed a fraction remaining at 1032 h of 54%. For `O=C(O)C1OC(Oc2ccc(C=Cc3cc(O)cc(O)c3)cc2)C(O)C(O)C1O` [trans-resveratol 4'-O-beta-D-glucuronide], the “Residual amount (%)” value in series [1] (citric acid buffer, 1032 h, pH 8) amounted to 73%.

(Values after EP2832344A1, “COMPOSITION, AND EXTERNAL PREPARATION FOR THE SKIN OR FUNCTIONAL FOOD EACH CONTAINING SAID COMPOSITION” (FUJI-FILM Corporation, priority 2012, dated 2013).)
